Source: patent US20240342242A1, “COMPOSITIONS AND METHODS FOR TREATING MASTITIS” (Zoetis Services LLC, priority 2021, published 2024)
Several values for one entry are separate records, joined by “and”; a condition that tells them apart may be missing. Identical values can stand only once. Entries after “also recorded” stand apart in the source; their conditions may differ.

Key:
Escherichia coli [1] = test: E. coli intramammary challenge in lactating dairy cows, CATH2 and analogs, Example 2; assay type: in vivo, Holstein cows; conditions: for overall protection against mastitis following IMM challenge with E. coli / intramammary infection observed / animals meeting criteria for clinical mastitis: 50 mg/10 mL; for intramammary infection observed: 4 treatments prior to challenge, vehicle 100%; for animals meeting criteria for clinical mastitis: 4 treatments twice daily for 2 days prior to challenge, vehicle 100.0%, FIG. 9; for milk concentrations of BSA, milk haptoglobin, milk amyloid A, IL-1 beta, IL-6, IL-8, IL-10 and TNFα: FIGS. 13-20
From the text: The objective of this study was to evaluate the efficacy of Cathelicidin-2 peptide analogs for reduction of incidence of clinical mastitis and severity of infection following Escherichia coli intramammary (IMM) infusion in lactating dairy cows. Healthy Holstein cows in their second or third lactation were selected based on culture negative results for mastitis pathogens and low somatic cell counts≤200,000. Enrolled animals were randomly assigned to treatment. Cows were commingled, housed and fed according to standard site procedures, and fitted with sensors to monitor activity. Cows were milked twice daily at regular intervals. The assigned treatment was administered following am and pm milkings starting 2 days prior to challenge. Four total treatments and the challenge were administered in the left front quarter. Treatment was administered twice daily for 2 days prior to challenge. The E. coli challenge material was administered to the treated quarter on the morning of Day 0 of study. The treatment regimen was designed to evaluate efficacy for prevention of the disease. All peptides were dosed at 50 mg/10 mL per dose. Milk samples were collected for analysis at 6-hour intervals on Day 0, and at each morning's milking from Day 1 through Day 7, and on Days 11 and 14.

[2] = system: primary bovine mammary epithelial cells (pMEC); test: Cytokine production in primary bovine mammary epithelial cells, unstimulated or LPS/MPLA (TLR 4 agonist) stimulated; assay type: cell-based
From the text: (§1) Chicken CATH2 is a host defense peptide that is naturally expressed in chicken heterophils and several tissues. […] LPS and MPLA serve as potent Toll-like Receptor 4 (TLR 4) agonists in this assay and induce high levels of proinflammatory cytokines such as interleukin 6 (IL-6) and tumor necrosis factor alpha (TNFα).

[3] = system: bovine peripheral blood mononuclear cells (PBMCs); test: Cytokine production in bovine PBMCs after TLR 4 agonist stimulation; assay type: cell-based; conditions: LPS or MPLA stimulation
From the text: as §1

Escherichia coli [4] = test: Lactating cow E. coli mastitis challenge model, Example 1; assay type: in vivo, Holstein Crossbred Cattle
Description: A frozen stock of E. coli was used to prepare a suspension of approximately 500 colony forming units/10 mL using standard site procedures. Standard plate counts were conducted on the challenge suspension immediately after preparation and after all animals were challenged. Details of the challenge inoculum preparation including concentration (CFU/10 mL) for the pre- and post-challenge preparation were documented and confirmed to be in range. Locally sourced healthy adult female Holstein Crossbred Cattle in the first, second, or third lactation were enrolled into the studies. Animals challenged with E. coli were susceptible to E. coli as determined by vaccination records and low serum titer to E. coli. Animals enrolled were confirmed to be between 14 and 35 days post-calving at enrollment. […] Following challenge quarters bacteriologically positive for E. coli were regarded as infected. Clinical mastitis was defined as a challenged quarter having a clinical score of at least 1 for either milk appearance or udder evaluation and an isolation of E. coli from the challenged quarter. Subclinical mastitis was defined as isolation of E. coli from the challenged quarter and elevated SSC in the absence of abnormal milk or udder score. This isolate elicits a moderate case of E. coli mastitis with body temperature increase in the first 24 hours post challenge and consistent local signs on udder appearance and milk quality.
In this study, animals were treated with 50 mg/10 mL at 12-hour intervals starting 12 hours prior to E. coli challenge. A total of 4 doses were administered by intramammary infusion. Dose administration concluded 24 hours after challenge. The objective of the study was to evaluate the potential for CATH2 to reduce the severity of clinical mastitis by modulation of the host immune response. The dose regimen was designed to ensure sufficient exposure in the absence of understanding the duration of the immunological effect driven by the peptide in cattle.
The experimental design was a randomized design with a one-way treatment structure replicated in 3 batches. […] Milk samples were collected for transcriptomic analysis and cytokine profiles in the whey at 12 hours post-challenge. Differential quantitative milk leukocyte counts were collected for 7 days post challenge.
One hundred fifty bovine milk samples were obtained in 3 separate cohorts and processed to whey. The whey samples were analyzed for total protein levels and the levels of 8 total cytokines using the developed MSD whey U-Plex method.

S. aureus = S. aureus challenge study, treatment at onset of clinical mastitis, Example 3; assay type: in vivo, Holstein or Holstein Crossbred cattle; conditions: 6 doses at 50 mg/10 mL intramammary
Description: Bovine mastitis specific bacterial pathogens were used to experimentally infect periparturient cows and first lactation heifer Holstein or Holstein Crossbred cattle to test the efficacy of the CATH2 peptide in the treatment and prevention of clinical mastitis.
A frozen stock of S. aureus was used to prepare a suspension of approximately 600 colony forming units in 5 mL. Standard plate counts were conducted on the challenge suspension immediately after preparation and after all animals were challenged. Details of each challenge inoculum preparation including concentration (CFU/5 mL) for pre- and post-challenge preparation were documented and confirmed to be in range.
Quarters that were bacteriologically positive for S. aureus were regarded as infected. Clinical mastitis was defined as a challenged quarter having a clinical score of at least 1 for either milk appearance or udder evaluation with an isolation of S. aureus (≥100 cfu/mL) from the quarter within 2 days of clinical signs. Sub-clinical chronic mastitis was defined as isolation of S. aureus (≥100 cfu/mL) from a challenged quarter and elevated SCC (>200,000 cells/mL) in the absence of abnormal milk or udder score.
All treatments were administered in accordance with the randomization provided by the biometrician into the challenged quarter (left front) of the udder. Treatments were administered upon onset of clinical mastitis. In this model, onset is approximately 1 to 3 days post-challenge. Upon confirmation of clinical mastitis, treatments were administered at the next milking. Treatments were administered with a 10 mL syringe via intramammary infusion and recorded.
Each animal with clinical mastitis received a total of 6 doses at 50 mg/10 mL by intramammary infusion administered twice daily for 3 consecutive days.

bacteria = test: Modified minimal bactericidal concentration assay in varying concentrations of milk; assay type: cell-based; conditions: as little as 10% whole and skim milk
From the text: The CATH2 peptide has antibacterial activity where it causes membrane disruption and lysis of the bacterial cell. The peptide also has cytotoxic effects on eukaryotic cells at high concentrations due the high positive charge, +8, and its ability to integrate in the cell membrane, resulting in membrane disruption. To further understand the behavior of the peptide in the context of the mammary gland, the inventors investigated the antibacterial activity and cytotoxicity of the peptide in the presence of milk. […] This finding led the inventors to investigate the impact of milk protein binding on peptide activity.

E. coli challenge strain = test: Antibacterial activity of 2 mg peptide in varying milk concentrations, 2-minute pre-incubation; assay type: cell-based
Description: In a follow up assay to better understand the impact of milk protein binding on antibacterial activity that may be seen in vivo, a ratio of peptide to milk protein was estimated. In this assay varying concentrations of milk in bacterial growth medium was incubated with 2 mg of peptide. Two minutes after adding peptide to the tube, 500 colony forming units (CFU)/mL of the E. coli challenge strain was added. The timing was purposeful for understanding how quickly the peptide can be completely bound. The low inoculum was also chosen intentionally to more closely replicate the dose provided in the in vivo challenge model, thereby providing a worst-case scenario on exposure to free peptide. […] The quantity of milk protein was enough to bind 2 mg of CATH2 peptide. The bacterial growth was evaluated at 1, 2, 4, 6, and 24 hours post inoculation. […] The lower level of detection was 10 CFU/mL and the upper level of quantification measured for the purposes of this assay was set to 1.5×10^5 CFU/mL.

Streptococcus uberis = test: S. uberis challenge study, Example 4; assay type: in vivo, cattle
[5] = Dry off therapy: transcriptomics of udder secretions in healthy dry cows, Example 5; assay type: in vivo, Holstein cattle; conditions: 400 mg/10 mL, 1-day post administration
Description: In an additional study, pregnant multiparous Holstein cattle were treated with a single dose of CATH2 at approximately 60 days prior to expected calving dates for this group of animals by intramammary infusion following milking. These animals were considered to be entering the so-called dry period in which animals are no longer milked until post-partition. The objective of this study was to understand the immunomodulatory activity of varying doses of CATH2 administered by intramammary infusion in healthy multiparous cows at dry off.
Udder secretion samples were collected 1, 2, and 7 days post administration. Samples were also collected from the neighboring Right Rear quarter as an untreated in animal control of varying immunological responses. The samples were processed for transcriptomics analysis to determine the healthy animal response to treatment alone.

[6] = Transcriptomics after treatment alone in the lactating cow model; assay type: in vivo; conditions: 100 mg/10 mL, 12 hour post administration, lactating cows
From the text: Prior to challenge in the lactating cow model, there is a consistent treatment effect of CATH2 alone indicating a modulation of the animal immune response. In the lactating cow model, these shifts lead to an enhanced response in clearance of the E. coli and resolution of inflammation as compared to untreated controls.

For “RCGRFLRKIRPFRRKVTITCQ [Analog 2, CATH2 1-21 analog]”, which “overall protection against mastitis following IMM challenge with E. coli” value (Escherichia coli [1]) is on record?
The value was “Relatively limited protection against mastitis”.

And the intramammary infection observed (Escherichia coli [1])?
The intramammary infection observed was 94.74%.

What about the “animals meeting criteria for clinical mastitis” value (Escherichia coli [1]) of the same sequence?
Its value is 95.74%.

What about the “milk concentrations of BSA, milk haptoglobin, milk amyloid A, IL-1 beta, IL-6, IL-8, IL-10 and TNFα” value (Escherichia coli [1]) of the same sequence?
The value was “modulation on acute phase proteins and key cytokines”.

What does the source list for “RFGRFLRKIRRFRPKVTITIQ [CATH2, truncated 1-21 amino acid L-form of chicken cathelicidin 2 peptide]”?
proinflammatory cytokines (IL-6, TNFα) upon LPS or MPLA stimulation ([2]; LPS or MPLA (TLR 4 agonist) stimulation, FIG. 1): dose-dependent inhibition of proinflammatory cytokines; proinflammatory cytokines in healthy unstimulated bovine mammary epithelial cells ([2]; varying concentrations of the peptide, unstimulated): minor increase in proinflammatory cytokines; proinflammatory cytokines (IL-6, TNFα) in PBMCs [3]: effectively inhibits these proinflammatory cytokines; animals showing signs of clinical mastitis (Escherichia coli [4]; 50 mg/10 mL intramammary, 4 doses at -12, 0, 12, 24 h, saline 95.65%): 8.70%; animals never positive for intramammary infection (Escherichia coli [4]; 50 mg/10 mL intramammary, 4 doses, 20 of 23 animals): 86.96% and 87.0%; animals that never met criteria for clinical mastitis (Escherichia coli [4]; 50 mg/10 mL intramammary, 4 doses, 21 out of 23 animals): 91.3%; animals qualifying for subclinical mastitis (Escherichia coli [4]; 14-day study, saline 20 of 23): None; somatic cell count (SCC) (Escherichia coli [4]; 6 hours post challenge, FIG. 6): notable increase in the SCC; milk whey cytokines (IL-1B, IL-6, IL-8/CXCL8, IL-10, TNFα) (Escherichia coli [4]; 12 hr post-challenge, vs saline): significantly lower levels of key inflammatory cytokines; also recorded: reduction in peak cytokine responses; milk yield (Escherichia coli [4]; AfiLab in-line system, each milking, FIG. 7): maintained high milk yields; BSA levels in the milk vs Saline control (Escherichia coli [4]; all time points after Day 0 at 6 hours post-challenge, FIG. 8): statistically significantly reduced BSA levels; time of SCC return to baseline (Escherichia coli [4]; bovine, in vivo): ≤ 24 hours post challenge; bacterial load in the milk (Escherichia coli [4]; first 6 days, FIG. 4): significant inhibition of E. coli ability to establish infection; BSA return to baseline levels (Escherichia coli [4]; milk from challenged quarter): ≤ 3 Study Day; animals not showing an increase in body temperature (Escherichia coli [4]; rectal temperature, 22 of 23 animals): 95.7%; overall protection against mastitis following IMM challenge with E. coli (Escherichia coli [1]): best protection against mastitis; intramammary infection observed (Escherichia coli [1]): 52.94%; animals meeting criteria for clinical mastitis (Escherichia coli [1]): 47.06%; cows with normal challenged quarter (Escherichia coli [1]; Day 6, vehicle 0%): 41.48%; milk concentrations of BSA, milk haptoglobin, milk amyloid A, IL-1 beta, IL-6, IL-8, IL-10 and TNFα (Escherichia coli [1]): lowest; cows demonstrating fever (Escherichia coli [1]; vehicle 80.0%, FIG. 12): 41.2%; duration of fever (Escherichia coli [1]; vehicle 5.5 h): 2.4 h; peak E. coli counts from the challenged quarter (Escherichia coli [1]; vehicle >4.0): < 1.5 log10 CFU/mL; bacterial load post challenge (Escherichia coli [1]; vs vehicle control, FIG. 10): greatest reduction in the bacterial load; BSA level in the milk (Escherichia coli [1]; vs vehicle control, FIG. 13): lowest level of BSA in the milk; animals showing a positive response to treatment (S. aureus): 55.6%; severity of disease (S. aureus): reduction in bacterial counts and reduced somatic cell counts; animals achieving clinical cure (S. aureus; twice daily for 3 days): 33.3%; peptide antibacterial activity in the presence of milk (bacteria): completely inhibited; antibacterial activity in 10% and 20% milk (E. coli challenge strain): some inhibition of bacterial growth; antibacterial activity in 30% whole milk (E. coli challenge strain; 2-minute incubation, 500 CFU/mL E. coli): completely block the antibacterial activity; antibacterial activity in bacterial medium alone (E. coli challenge strain; E. coli below level of detection (10 CFU/mL) at 1, 2, 4, 6, 24 h): completely bactericidal; animals meeting criteria for removal from study (Kaplan Meier analysis) (Streptococcus uberis; 50 mg/10 mL, 2 doses prior to challenge or 4 doses spanning challenge, FIG. 21): reduction in the number of animals meeting criteria for removal of study; incidence of clinical mastitis (Streptococcus uberis; 50 mg/10 mL, both regimens, FIG. 22): reduced incidence of clinical mastitis; progression of clinical mastitis, 4 dose regimen vs 2 dose regimen (Streptococcus uberis; 4 doses at -12, 0, 12, 24 hours): greater capacity to inhibit the progression of clinical mastitis; gene expression in udder secretions [5]: increased expression of: CCL24, CXCL2, IL1RAP, CXCR1, and CXCR2; gene expression in milk [6]: increased expression of: CCL24, CXCL2, IL1RAP, CXCR1, and CXCR2

What does the source list for “RFGRWLRKIRRYRGKVTITIQ [Analog 1, CATH2 1-21 analog]”?
overall protection against mastitis following IMM challenge with E. coli (Escherichia coli [1]): Relatively limited protection against mastitis; intramammary infection observed (Escherichia coli [1]): 94.74%; animals meeting criteria for clinical mastitis (Escherichia coli [1]): 78.95%; milk concentrations of BSA, milk haptoglobin, milk amyloid A, IL-1 beta, IL-6, IL-8, IL-10 and TNFα (Escherichia coli [1]): modulation on acute phase proteins and key cytokines
